Measured values: patent publication US20120142621A1 (priority 2010, published 2012)

Legend:
[1] = system: septic peritonitis via CLP; assay: CLP model of intra-abdominal sepsis: survival / mortality; assay type: in vivo, rat; details: same CLP model, FIG. 4
Protocol: Effect of Glyco 23 on mortality in intra-abdominal sepsis. […] The CLP model was chosen for its reproducible mortality rates and its ability to mimic fecal peritonitis.
This dose is well below the LD50 (6-7 gm/kg) of naturally occurring sophorolipids in rodents.^(40,41). Doses were given at the end of the surgery, and animals were followed for 36 hours. Kaplan Meier statistics were performed on survival.

[2] = system: septic peritonitis via CLP; assay: Survival, WBC and blood culture at 3 hours and 24 hours post insult (CLP); assay type: in vivo, rat; details: 5 mg/kg IV at end of surgery, n=6/group; for Survival 24 Hs. post insult: % printed only over the 3 hours column
Protocol: Survival at 3 hours and 24 hours post insult. […] Doses were given at the end of the surgery, and animals were followed for 24 hours (Table 1)

[3] = system: standard bacterial isolates; assay: Antibiotic activity, broth microdilution method; assay type: cell-based; details: clinically relevant concentrations
[4] = system: galactosamine-sensitized LPS endotoxic shock; assay: Galactosamine-sensitized LPS endotoxic shock mortality; assay type: in vivo, mouse
Text: Therefore, treatment after 2 hr can be compared to treatment after 24 hrs or later in conventional models.

IL-1 = assay: Cytokine responses in vitro: IL-1; assay type: cell-based; details: compared with the natural mixture responses, FIG. 5
IL-8 = assay: Cytokine responses in vitro: IL-8; assay type: cell-based; details: compared with the natural mixture responses, FIG. 5
IL-1β = assay: RNase Protection Assay, splenocyte mRNA of CLP-septic rats: IL-1β; assay type: in vivo, rat; details: 5 mg/kg; splenocytes at 6 hrs; percent control (CLP+vehicle) +/- SEM; P<0.05
Text: (§1) Data are expressed as percent control (CLP+vehicle)+/−SEM. Treatment groups were significant (p<0.05) compared with control using student's T test. CLP=cecal ligation and puncture; SL=sophorolipid

TGF-β1 = assay: RNase Protection Assay, splenocyte mRNA of CLP-septic rats: TGF-β1; assay type: in vivo, rat; details: splenocytes at 6 hrs; percent control (CLP+vehicle) +/- SEM; P<0.05
Text: as §1

[5] = system: LPS-induced immunologically relevant genes in mouse macrophages; assay: Microarray analysis of macrophages cultured with LPS +/- Glyco 23; assay type: cell-based; details: Affymetrix Murine Genome Array U74Av2; LPS maximum set as 100%
Protocol: The maximum level of each gene expression attained in the presence of LPS was set as 100%. […] The analysis was performed using the Affymetrix GeneChip® Murine Genome Array U74Av2 probe array.

CD14 = target: T1, CD14 (Mus musculus, UniProt P10810); assay: Macrophage surface expression by antibody staining: CD14; assay type: cell-based; details: RAW264.7 macrophages, 10 μg/ml, 30 min
T1 construct: endogenous in cells; host or cells: RAW264.7 macrophages
T1 sequence (P10810 16-336): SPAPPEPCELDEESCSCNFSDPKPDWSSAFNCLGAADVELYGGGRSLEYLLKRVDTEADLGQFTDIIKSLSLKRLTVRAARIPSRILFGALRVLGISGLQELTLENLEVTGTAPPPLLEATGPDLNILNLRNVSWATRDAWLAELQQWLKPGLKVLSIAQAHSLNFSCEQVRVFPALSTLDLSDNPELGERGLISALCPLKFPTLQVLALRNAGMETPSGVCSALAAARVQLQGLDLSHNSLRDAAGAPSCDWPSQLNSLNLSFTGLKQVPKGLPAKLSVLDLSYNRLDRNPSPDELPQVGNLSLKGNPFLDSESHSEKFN
Protocol: (§2) Effects of Glyco 23 on TLR pathway: We studied expression of macrophage CD14 and TLR4 in an in vitro model system using cultured macrophages to relate Glyco 23 mechanism of action to events upstream of cytokine gene expression. […] This observation is significant in light of very recent studies showing that CD14 inhibition using anti-CD14 antibodies in an in vivo pig model of gram-negative sepsis and endotoxemia.^(42)
(§3) Macrophages (RAW264.7) were incubated in the absence or presence of sophorolipids (SL, 10 μg/ml, 30 min, room temperature), washed with phosphate-buffered saline (PBS), and anti-CD 14 or anti-TLR4 antibodies (Santa Cruz Biotechnology, 10 μg/ml, 30 min, room temperature). The cells were then washed with PBS and staining was performed using ABC staining system (Santa Cruz Biotechnology), according to manufacturer's instructions. The cells were then fixed with 1% formaldehyde and examined microscopically. A total of 200 cells were scored in triplicate for each determination, and results expressed as % of total cells counted.

TLR4 = target: T2, TLR4 (Mus musculus, UniProt Q9QUK6); assay: Macrophage surface expression by antibody staining: TLR4; assay type: cell-based; details: RAW264.7 macrophages, 10 μg/ml, 30 min
T2 construct: endogenous in cells; host or cells: RAW264.7 macrophages
T2 sequence (Q9QUK6 26-835): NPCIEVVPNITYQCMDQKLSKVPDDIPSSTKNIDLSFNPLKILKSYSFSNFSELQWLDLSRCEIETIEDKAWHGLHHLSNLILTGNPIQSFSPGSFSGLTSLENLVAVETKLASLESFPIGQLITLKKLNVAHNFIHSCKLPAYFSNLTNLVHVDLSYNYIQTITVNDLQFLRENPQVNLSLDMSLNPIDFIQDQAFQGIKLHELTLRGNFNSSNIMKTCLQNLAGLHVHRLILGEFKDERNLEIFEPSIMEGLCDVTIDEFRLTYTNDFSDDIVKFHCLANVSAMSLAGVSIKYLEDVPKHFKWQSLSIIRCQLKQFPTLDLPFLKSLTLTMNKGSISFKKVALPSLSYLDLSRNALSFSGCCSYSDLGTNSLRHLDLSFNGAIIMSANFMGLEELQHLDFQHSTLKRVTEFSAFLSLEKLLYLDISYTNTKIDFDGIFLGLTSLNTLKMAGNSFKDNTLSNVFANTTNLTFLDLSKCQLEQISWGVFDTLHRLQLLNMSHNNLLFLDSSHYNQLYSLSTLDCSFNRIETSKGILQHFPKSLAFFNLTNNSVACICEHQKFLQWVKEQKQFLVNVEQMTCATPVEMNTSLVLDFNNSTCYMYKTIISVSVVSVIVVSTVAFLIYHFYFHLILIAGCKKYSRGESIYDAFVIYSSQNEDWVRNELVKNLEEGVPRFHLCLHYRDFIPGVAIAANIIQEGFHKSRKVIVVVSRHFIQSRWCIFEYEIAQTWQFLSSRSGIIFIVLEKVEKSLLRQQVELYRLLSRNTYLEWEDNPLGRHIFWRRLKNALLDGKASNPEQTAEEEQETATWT
Protocol: as §2, §3

[6] = Dosage finding after CLP, tail vein IV; assay type: in vivo; details: 24 mg/kg IV in 50% ethanol-PBS; possibly due to ethanol concentration
Protocol: Dosage To determine the optimum dose that can be administered to the rats, 3 different doses of Glyco 23, 6 mg/kg, 12 mg/kg and 24 mg/kg of rat body weight (in 50% ethanol-PBS) was administered using tail vein IV to 9 rats following the Cecal Ligation and Puncture (CLP). Control rats (n=3) were injected with 0.5 ml of PBS. […] Rats that received […] and 12 mg/kg doses survived after 24 hours. Blood was obtained before they were sacrificed the next day.

Interleukin-6 (IL-6) = assay: Serum IL-6 by ELISA 3 hrs after CLP; assay type: in vivo, rat; details: natural mixture versus free acid form, FIG. 10
Protocol: Serum samples were obtained from rats (N=5 animals/group) 3 hrs. after (CLP) to establish polymicrobial sepsis, and intravenous injection of saline (control), sophorolipids-natural mixture (SL) or Glyco 23. Serum concentrations of Interleukin-6 (IL-6) were determined using commercial ELISA tests according to manufacturer's instructions. Results were evaluated for statistical significance using ANOVA.

Row | Molecule | Mortality rate reduced compared to vehicle [1] [%] | Survival % 3 hours post insult [2] [%] | Survival 24 Hs. post insult [2] [%] | antibiotic activity [3] | Mortality (%) ([4]; LPS at 0 hs, Glyco at 0 hs, n = 9) | Mortality (%) ([4]; LPS at 0 hs, Glyco at 1.5 hs, n = 10) | Mortality (%) ([4]; LPS at 1.5 hs, Glyco at 0 hs, n = 10) | decrease of endotoxin mortality ([4]; administered 2 hr after insult, versus positive control mice) [%] | IL-1 cytokine response suppression (IL-1) | IL-8 cytokine response suppression (IL-8) | reduction in IL-1β expression (mRNA) (IL-1β) | increased expression of TGF-β1 (mRNA) (TGF-β1) [%] | expression of genes upregulated more than 5 fold by LPS [5] | surface expression of CD14 (CD14) | surface expression of TLR4 (TLR4) | time to death of all rats [6] [h] | difference between the inhibitory effects on serum IL-6 (Interleukin-6 (IL-6))
1 | CCOC(=O)CCCCCCC/C=C\CCCCCCC(C)OC1O[C@H](CO)[C@@H](O)[C@H](O)[C@H]1OC1O[C@H](CO)[C@@H](O)[C@H](O)[C@H]1O (relative stereo) [Glyco 23, Ethyl-17-L-[(2′-O-D-glucopyranosyl-D-glucopyranosyl)-oxy]-cis-9-octadecenoate] | 37 | 100 | 100 | no significant antibiotic activity | 89 | 30 | 80 | 56 | decreased | decreased | 42.5%±4.7% | 11.7±1.5 | suppressed | interferes with surface expression | interferes with surface expression | ≤ 2 | 
2 | CC(CCCCCC/C=C\CCCCCCCC(=O)O)O[C@@H]1O[C@H](CO)[C@@H](O)[C@H](O)[C@H]1O[C@@H]1O[C@H](CO)[C@@H](O)[C@H](O)[C@H]1O (relative stereo) [Sohorolipid Free Acid derivative, 17-L-[(2′-O-b-D-glucopyranosyl-b-D-glucopyranosyl)-oxy]-cis-9-octadecenoatede-acetylated free acid] |  | 100 | 90 |  |  |  |  |  |  |  |  |  |  |  |  |  | No significant difference
3 | Lipid A [reference compound] |  | 50 | 32 |  |  |  |  |  |  |  |  |  |  |  |  |  | 
